Measured values taken from article PMC10342533, “Novel Tetrazole Derivatives Targeting Tubulin Endowed with Antiproliferative Activity against Glioblastoma Cells” (International Journal of Molecular Sciences, 2023).
In brackets after ≈: the same amount, converted by molar mass.

Tests used:
[1] = test system: HeLa (cervix epithelioid carcinoma); experiment: Cell growth inhibition, MTT assay, HeLa; type: cell-based; details: Homo sapiens
Method: (§1) The ability of the synthesized compounds to inhibit the cell proliferation of human cancer cell lines was assayed by measuring cell viability through the use of the MTT method 72 h after treatment. For this purpose, representative cell lines of the most frequent kinds of cancer were selected, including the following: HeLa (cervix epithelioid carcinoma), MCF7 (breast adenocarcinoma), U87 MG (glioblastoma), T98G (temozolomide resistant glioblastoma), HepG2 (hepatocellular carcinoma), HCT8 (colorectal carcinoma), and HT-29 (colon adenocarcinoma).
(§2) The cell lines were obtained from ATTC (Manassas, VA, USA). […] The cells were periodically tested for Mycoplasma infection by using a MycoAlert kit (Lonza, Norwest, Australia), and only Mycoplasma-free cells were used in the experiments.
(§3) Then, every compound was added (10 µL/well) to a final concentration of 10 µM. Untreated cells were used as negative controls. The antiproliferative activity of compounds was measured 72 h after drug exposure through the MTT assay. […] For this purpose, compounds were used at different concentrations, ranging from 10^−10 to 10^−2 M. Measurements were performed in triplicate, and each experiment was repeated three times. The IC50 values were determined using Origin software (version 9.6, OriginLab, Washington, DC, USA).

[2] = test system: HepG2 (hepatocellular carcinoma); experiment: Cell growth inhibition, MTT assay, HepG2; type: cell-based; details: Homo sapiens
Method: as §1, §2, §3

[3] = test system: T98G (temozolomide resistant glioblastoma); experiment: Cell growth inhibition, MTT assay, T98G; type: cell-based; details: Homo sapiens
Method: as §1, §2, §3

U87 MG (glioblastoma) = experiment: Cell growth inhibition, MTT assay, U87 MG; type: cell-based; details: Homo sapiens, U-87 MG
Method: as §1, §2, §3

[4] = Aqueous solubility, shake-flask method, phosphate buffer pH 7.4; type: physicochemical; details: thermodynamic from solid, phosphate buffer pH 7.4, shake-flask, mean ± SD of three experiments
Method: The aqueous solubility of tetrazole derivatives was determined by the shaking flask methodology in phosphate buffer at pH 7.4, microfiltration, and quantification of the saturated solutions via UV spectroscopy. […] The introduction of polar groups on the 3-indole position was favorable since the most soluble compounds were the oximes 16–19 (38–53 µg/mL), followed by the carbaldehyde series 12–15 (33–45 µg/mL), and the carbonitrile derivatives (25–40 µg/mL), whereas the unsubstituted indoles 8–11 were the least soluble series (19–35 µg/mL).
The aqueous solubility of the compounds was determined using the saturation shake-flask method. First, calibration lines at the maximum wavelength of absorbance were determined for each compound. Then, 5 mg of each compound was suspended in 500 µL of pH 7.4 buffer, and the resulting mixture was shaken for 72 h at room temperature and filtrated over a […] filter to remove the insoluble fraction. The concentration of the compound in the supernatant (saturated solution) was determined by measuring UV absorbance at the maximum wavelength of absorbance and interpolation in the calibration line. A Helios Alfa Spectrophotometer was used for the UV measurements. The aqueous solubility values are given as the average of three independent experiments.

[5] = target: T1, microtubular protein isolated from calf brains (bovine brain tubulin) (Bos taurus, UniProt P81947+Q6B856); experiment: Tubulin polymerization inhibition (TPI); type: biochemical; details: in vitro tubulin polymerization, mean ± SD
T1 construct: from tissue; host or cells: calf (bovine) brain
Method: We evaluated the capacity of the new synthesized compounds to inhibit the polymerization of microtubular protein isolated from calf brains. The assays were performed by taking absorbance measurements to quantify the amount of polymer mass formed in the presence (or absence; negative controls) of the compounds.
Bovine brain tubulin was isolated as previously described by following a modified version of the Shelanski method. The protein was stored at −80 °C, and its concentration was determined by employing the Bradford method before each use. […] Tubulin polymerization, caused when heating the samples, was accompanied by an increase in the absorbance (at 450 nm) of the sample that was monitored by using a Helios α spectrophotometer. […] Measurements were performed in triplicate in two independent experiments using microtubular proteins from different preparations.

[6] = test system: HCT8 (colorectal carcinoma); experiment: Cell growth inhibition, MTT assay, HCT8; type: cell-based; details: Homo sapiens
Method: as §1, §2, §3

[7] = test system: MCF7 (breast adenocarcinoma); experiment: Cell growth inhibition, MTT assay, MCF7; type: cell-based; details: Homo sapiens
Method: as §1, §2, §3

[8] = test system: HT-29 (colon adenocarcinoma); experiment: Cell growth inhibition, MTT assay, HT-29, without or with verapamil; type: cell-based, human
Method: as §1
Multidrug resistance (MDR) proteins, especially P-glycoprotein (P-gp), are often involved in resistance mechanisms affecting tubulin-binding drugs that are frequently related to the failure of cancer therapies. […] These pumps are also part of the blood–brain barrier.
as §2, §3

[9] = test system: HEK-293 (embryonic kidney); experiment: Cell growth inhibition, MTT assay, non-tumor HEK-293; type: cell-based; details: Homo sapiens
Method: The ability of the synthesized compounds to inhibit the cell proliferation of human cancer cell lines was assayed by measuring cell viability through the use of the MTT method 72 h after treatment. For this purpose, representative cell lines of the most frequent kinds of cancer were selected, including the following: HeLa (cervix epithelioid carcinoma), MCF7 (breast adenocarcinoma), U87 MG (glioblastoma), T98G (temozolomide resistant glioblastoma), HepG2 (hepatocellular carcinoma), HCT8 (colorectal carcinoma), and HT-29 (colon adenocarcinoma). […] The compounds were also tested against the non-tumor HEK-293 cells to study their selectivity toward cancer cells. […] The cell lines were obtained from ATTC (Manassas, VA, USA). […] The cells were periodically tested for Mycoplasma infection by using a MycoAlert kit (Lonza, Norwest, Australia), and only Mycoplasma-free cells were used in the experiments. […] Louis, MO, USA), which was dissolved in PBS at 5 mg/mL in accordance with the manufacturer's instructions. […] Untreated cells were used as negative controls. The antiproliferative activity of compounds was measured 72 h after drug exposure through the MTT assay. […] For this purpose, compounds were used at different concentrations, ranging from 10^-10 to 10^-2 M. Measurements were performed in triplicate, and each experiment was repeated three times. The IC50 values were determined using Origin software (version 9.6, OriginLab, Washington, DC, USA).

[10] = HCT-8, 72 h after drug exposure
[11] = Homo sapiens, HT-29, 72 h after drug exposure
[12] = Homo sapiens, HT-29, mean ± SD, Table S1
[13] = mean ± SD, Table S1, in the presence of verapamil (10 µM)
[14] = HEK293, 72 h, non-tumorigenic cell line
[15] = HEK293, heading: IC50 HEK-293, mean ± SD, Table S1, non-tumorigenic cell line

T1 sequence (Q6B856 whole entry): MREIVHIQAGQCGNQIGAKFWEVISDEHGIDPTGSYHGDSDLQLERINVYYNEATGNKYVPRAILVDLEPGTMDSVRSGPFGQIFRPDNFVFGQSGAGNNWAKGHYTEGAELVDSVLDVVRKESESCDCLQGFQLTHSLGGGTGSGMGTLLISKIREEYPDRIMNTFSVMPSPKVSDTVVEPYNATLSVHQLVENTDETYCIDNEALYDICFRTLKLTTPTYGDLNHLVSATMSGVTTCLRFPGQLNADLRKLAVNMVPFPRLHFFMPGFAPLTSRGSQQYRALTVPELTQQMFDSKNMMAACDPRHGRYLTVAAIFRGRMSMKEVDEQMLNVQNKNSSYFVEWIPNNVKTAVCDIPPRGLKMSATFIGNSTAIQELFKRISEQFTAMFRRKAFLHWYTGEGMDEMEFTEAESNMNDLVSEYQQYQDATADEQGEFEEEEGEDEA
T1 sequence (P81947 whole entry): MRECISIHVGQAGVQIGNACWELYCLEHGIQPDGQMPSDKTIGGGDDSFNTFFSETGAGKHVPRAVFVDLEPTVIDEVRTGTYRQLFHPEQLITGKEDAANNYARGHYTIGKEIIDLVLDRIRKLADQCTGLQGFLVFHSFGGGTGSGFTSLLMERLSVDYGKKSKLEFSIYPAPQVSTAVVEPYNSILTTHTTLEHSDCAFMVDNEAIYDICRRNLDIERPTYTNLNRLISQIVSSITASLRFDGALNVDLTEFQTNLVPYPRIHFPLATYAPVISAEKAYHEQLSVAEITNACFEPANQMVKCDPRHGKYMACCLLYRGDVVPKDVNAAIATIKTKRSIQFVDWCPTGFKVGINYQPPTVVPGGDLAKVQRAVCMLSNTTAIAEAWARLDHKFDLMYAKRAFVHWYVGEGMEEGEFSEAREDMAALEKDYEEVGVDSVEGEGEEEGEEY

Row | Compound | IC50 ([1]; 72 h after drug exposure) | IC50 ([1]; mean ± SD, Table S1) | IC50 ([2]; 72 h after drug exposure) | IC50 ([2]; mean ± SD, Table S1) | IC50 ([3]; 72 h, 72 h after drug exposure) | IC50 ([3]; mean ± SD, Table S1) | IC50 (U87 MG (glioblastoma); 72 h after drug exposure) | IC50 (U87 MG (glioblastoma); mean ± SD, Table S1) | solubility at 72 h [4] | IC50 [5] | IC50 [6, 10] | IC50 ([6]; HCT-8, mean ± SD, Table S1) | IC50 ([7]; 72 h after drug exposure) | IC50 ([7]; mean ± SD, Table S1) | IC50 [8, 11] | IC50 [8, 12] | IC50 [8, 13] | IC50 [9, 14] | melting point | IC50 [9, 15]
1 | COc1cc(-c2nnnn2-c2ccc3c(ccn3C)c2)cc(Cl)n1 [Compound 9, 5-(5-(2-chloro-6-methoxypyridin-4-yl)-1H-tetrazol-1-yl)-1-methyl-1H-indole] | 72 nM | 72.5 ± 0.4 nM | 70 nM | 70.5 ± 0.5 nM | 54 nM | 54.4 ± 0.5 nM | 48 nM | 48.1 ± 0.4 nM | 35.4 ± 0.2 µg/mL (≈ 104 µM) | 3100 ± 200 nM | 75 nM | 75.4 ± 0.6 nM | 69 nM | 69.3 ± 0.5 nM | 81 nM | 81.1 ± 0.5 nM | 80.2 ± 0.6 nM | 5200 nM |  | 
2 | CSc1cc(-c2nnnn2-c2ccc3c(c2)c(C=O)cn3C)cc(SC)n1 [Compound 15, 5-(5-(2,6-bis(methylsulfanyl)pyridin-4-yl)-1H-tetrazol-1-yl)-1-methyl-1H-indole-3-carbaldehyde] | 144 nM | 144 ± 1.7 nM | 137 nM | 137 ± 1.5 nM | 122 nM | 122.5 ± 1.2 nM | 115 nM | 115 ± 1.4 nM | 41.2 ± 0.4 µg/mL (≈ 104 µM) | 3500 ± 200 nM | 141 nM | 141.3 ± 1 nM | 130 nM | 130.1 ± 1.1 nM | 244 nM | 244.1 ± 1.8 nM | 242 ± 2.5 nM | 6480 nM | 207 to 208 °C | 
3 | CSc1cc(-c2nnnn2-c2ccc3c(ccn3C)c2)cc(SC)n1 [Compound 11, 5-(5-(2,6-bis(methylsulfanyl)pyridin-4-yl)-1H-tetrazol-1-yl)-1-methyl-1H-indole] | 233 nM | 233.1 ± 1.4 nM | 227 nM | 227 ± 2.5 nM | 219 nM | 219 ± 2.2 nM | 209 nM | 209.3 ± 1.9 nM | 30.7 ± 0.3 µg/mL (≈ 83.3 µM) | 3800 ± 100 nM | 236 nM |  | 240 nM | 240.2 ± 2 nM | 255 nM | 255 ± 2.6 nM | 257 ± 3 nM | 6820 nM | 160 to 161 °C | 
4 | COc1cc(-c2nnnn2-c2ccc3c(c2)c(C=O)cn3C)cc(Cl)n1 [Compound 13, 5-(5-(2-chloro-6-methoxypyridin-4-yl)-1H-tetrazol-1-yl)-1-methyl-1H-indole-3-carbaldehyde] | 57 nM | 57.5 ± 0.3 nM | 55 nM | 55.3 ± 0.2 nM | 54 nM | 54.1 ± 0.3 nM | 55 nM | 55.4 ± 0.4 nM | 45.3 ± 0.4 µg/mL (≈ 123 µM) | 2800 ± 200 nM | 50 nM | 50.1 ± 0.4 nM | 65 nM | 65.4 ± 0.5 nM | 64 nM | 64.2 ± 0.4 nM | 67.3 ± 0.6 nM | 3720 nM | 214 to 215 °C | 
5 | COc1cc(-c2nnnn2-c2ccc3c(c2)c(C=NO)cn3C)cc(Cl)n1 [Compound 17, 5-(5-(2-chloro-6-methoxypyridin-4-yl)-1H-tetrazol-1-yl)-1-methyl-1H-indole-3-carbaldehyde oxime] | 220 nM | 220.2 ± 1.9 nM | 229 nM |  | 181 nM | 181.4 ± 1.5 nM | 155 nM | 155.2 ± 1.3 nM | 53 ± 0.3 µg/mL (≈ 138 µM) | 3800 ± 100 nM | 227 nM |  | 215 nM |  | 238 nM |  | 230 ± 2.5 nM | 7250 nM |  | 
6 | COc1cc(-c2nnnn2-c2ccc3c(c2)c(C#N)cn3C)cc(Cl)n1 [Compound 21, 5-(5-(2-chloro-6-methoxypyridin-4-yl)-1H-tetrazol-1-yl)-1-methyl-1H-indole-3-carbonitrile] | 722 nM | 722.1 ± 5 nM | 740 nM | 740.3 ± 6.4 nM | 689 nM | 689 ± 7.5 nM | 634 nM |  | 39.7 ± 0.4 µg/mL (≈ 109 µM) | 6900 ± 300 nM | 705 nM | 705.4 ± 4.9 nM | 701 nM | 701.5 ± 5.2 nM | 749 nM | 749.5 ± 5.1 nM | 756.2 ± 5.6 nM | > 10000 nM |  | > 10000 nM
7 | CSc1cc(-c2nnnn2-c2ccc3c(c2)c(C#N)cn3C)cc(SC)n1 [Compound 23, 5-(5-(2,6-bis(methylsulfanyl)pyridin-4-yl)-1H-tetrazol-1-yl)-1-methyl-1H-indole-3-carbonitrile] | 841 nM | 841.1 ± 6.1 nM | 877 nM | 877.2 ± 5.9 nM | 865 nM | 865.2 ± 7.2 nM | 831 nM | 831.2 ± 4.8 nM | 34.1 ± 0.3 µg/mL (≈ 86.7 µM) | 7900 ± 200 nM | 822 nM | 822.3 ± 6.7 nM | 963 nM | 963.3 ± 7.1 nM | 929 nM | 929.1 ± 7.8 nM | 927.5 ± 7.4 nM | > 10000 nM |  | > 10000 nM
